Results as given in US20230242586A1, “RAS INHIBITORS AND USES THEREOF” (The Regents of the University of California, priority 2020, published 2023).
≈ marks a conversion by molar mass, not a printed value. Entries after “also recorded” stand apart in the source; their conditions may differ.

Assays:
[1] = target: T1, K-Ras(G12D)·GppNHp and Raf1-RBD (Homo sapiens, UniProt P01116, G12D); test: TR-FRET Ras-Raf interaction assay, K-Ras(G12D); type: biochemical; conditions: KD2 Thr10 analogs compared to KD2
T1 construct: pET-Duet plasmids encoding BirA biotin-protein ligase and His-Avi-TEV-tagged K-Ras proteins were constructed; made in house; host or cells: E. coli BL21(DE3)
T1 sequence (P01116 1-169 isoform P01116-2 G12D): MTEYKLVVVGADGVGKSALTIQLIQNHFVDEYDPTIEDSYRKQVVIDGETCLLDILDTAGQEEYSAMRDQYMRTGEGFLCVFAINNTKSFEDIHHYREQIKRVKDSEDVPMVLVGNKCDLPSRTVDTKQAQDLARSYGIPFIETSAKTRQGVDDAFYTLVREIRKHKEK

[2] = Solubility in aqueous buffer; type: physicochemical; conditions: for solubility (in words): KD2 Thr10 mutants, compared with parent peptide KD2
SW1990 cells = test: Ras signaling (p-Akt, p-Erk) in SW1990 cells, Western blot; type: cell-based; conditions: SW1990, 10 μM, 24 h
Method: SW1990 cells were obtained from ATCC and maintained in DMEM (Gibco)+10% heat-inactivated FBS (Axenia Biologix) supplemented with penicillin and streptomycin (Gibco). When indicated, cells were treated with drugs at 60-80% confluency at a final DMSO concentration of 1%. At the end of treatment period, cells were placed on ice and washed once with PBS. The cells were scraped with a spatula, pelleted by centrifugation (500×g, 5 min) and lysed in RIPA buffer supplemented with protease and phosphatase inhibitors (cOmplete and phosSTOP, Roche) on ice for 10 min. Lysates were clarified by high-speed centrifugation. Concentrations of lysates were determined with protein BCA assay (Thermo Fisher) and adjusted to 2 mg/mL with additional RIPA buffer. Samples were mixed with 5×SDS Loading Dye and heated at 95° C. for 5 min.
Gel Electrophoresis and Western Blot
Unless otherwise noted, SDS-PAGE was run with Novex 4-12% Bis-Tris gel (Invitrogen) in MES running buffer (Invitrogen) at 200V for 40 min following the manufacturer's instructions. Protein bands were transferred onto 0.45-μm nitrocellulose membranes (Bio-Rad) using a wet-tank transfer apparatus (Bio-Rad Criterion Blotter) in 1×TOWBIN buffer with 10% methanol at 75V for 45 min. […] The membrane was washed three times with TBST (5 min each wash) and imaged on a Li-COR Odyssey fluorescence imager.

## CC1CCN(C[C@@H]2NC(=O)[C@H](CCCNC(=N)N)NC(=O)[C@H](Cc3ccccc3)NC(=O)[C@H](CC(N)=O)NC(=O)[C@H](CCCNC(=N)N)NC(=O)[C@H](Cc3ccccc3)NC(=O)[C@H](CC(N)=O)NC(=O)[C@H](C(C)C)NC(=O)[C@H](Cc3ccccc3)NC(=O)[C@@H](Cc3ccc(O)cc3)NC(=O)CSC[C@@H](C(=O)NCC(N)=O)NC(=O)[C@H](CCCNC(=N)N)NC(=O)[C@H](Cc3ccccc3)NC2=O)CC1 [Aza-X]
[1]
  potency relative to KD2, Ras·Raf interaction: > 10 fold

## NC[C@H](N)C(=O)O [Dap, 2,3-diaminoproprionic acid]
[2]
  solubility (in words): limited solubility

## N[C@@H](Cc1c[nH]cn1)C(=O)O [His, histidine]
[2]
  solubility (in words): limited solubility

## CC[C@H](C)[C@@H]1NC(=O)[C@H](Cc2ccccc2)NC(=O)[C@H](CCCCN)NC(=O)[C@H](CCC(=O)O)NC(=O)[C@H]([C@@H](C)O)NC(=O)[C@H](C(C)C)NC(=O)[C@H]([C@@H](C)CC)NC(=O)[C@H]([C@@H](C)CC)NC(=O)[C@@H](Cc2ccc(O)cc2)NC(=O)CSC[C@@H](C(=O)NCC(N)=O)NC(=O)[C@H](Cc2c[nH]cn2)NC(=O)[C@H](Cc2c[nH]cn2)NC(=O)[C@H](C(C)C)NC(=O)[C@H](Cc2c[nH]c3ccccc23)NC1=O [KD1]
[2]; aqueous buffer
  solubility: ~50 µM (≈ 94.2 µg/mL)
SW1990 cells
  Ras signaling (p-Akt or p-Erk levels): did not observe any change; also recorded: does not inhibit Ras signaling

## CC(C)C[C@@H]1NC(=O)[C@H](CCC(=O)O)NC(=O)[C@H](CC(C)C)NC(=O)[C@@H]2CCCN2C(=O)[C@H](CCCNC(=N)N)NC(=O)[C@H](Cc2ccc(O)cc2)NC(=O)[C@@H]2CCCN2C(=O)[C@H](Cc2ccc(O)cc2)NC(=O)[C@H](CC(N)=O)NC(=O)[C@@H](Cc2ccc(O)cc2)NC(=O)CSC[C@@H](C(=O)NCC(N)=O)NC(=O)[C@H](Cc2ccc(O)cc2)NC(=O)[C@H](Cc2c[nH]c3ccccc23)NC(=O)CNC1=O [KD17]
SW1990 cells
  Ras signaling (p-Akt or p-Erk levels): did not observe any change; also recorded: does not inhibit Ras signaling

## NCCCC[C@H](N)C(=O)O [Lys, lysine]
[2]
  solubility (in words): significantly lower
[1]
  potency relative to KD2, Ras·Raf interaction: about 3 fold
